This is an account of results in patent publication US9840513B2 (AbbVie S.à.r.l., priority 2015, dated 2017).

By EC50 is commonly meant the concentration that produces a half-maximal response. Read a high EC50 as weaker potency.

This assay concerns the target T1, F508delCFTR cell surface expression in CFBE41o-F508delCFTR-HRP cells (Homo sapiens, UniProt P13569, DEL508-508).
T1 construct: fused on or other part: Horseradish peroxidase (HRP) reporter inserted in the fourth exofacial (extracellular) loop of CFTR; expression is doxycycline-inducible
In words: Cell Surface Expression-Horse Radish Peroxidase (CSE-HRP) Assay. Type of assay: cell-based. As to conditions: for EC50: CFBE41o-F508delCFTR-HRP cells, 18-24 hours at 33° C., 8-point curve, highest concentration 20 μM; for Maximum % activity (%): maximum at any tested concentration, normalized to on-plate positive control (3 μM). The essentials:
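Correctors incubated 18-24 h at 33 °C on doxycycline-induced (0.5 μg/mL, 72 h) CFBE41o-F508delCFTR-HRP cells, 3-fold series from 20 μM. After DPBS washes, luminol luminescence read; activity expressed relative to DMSO and a 3 μM positive control, EC50 fitted from triplicate plates.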

SMILES strings stand for the structures. A value given as a limit tells only on which side of the number the result lay.

T1 sequence (P13569 with tags, fused parts or gaps DEL508-508 limits assumed): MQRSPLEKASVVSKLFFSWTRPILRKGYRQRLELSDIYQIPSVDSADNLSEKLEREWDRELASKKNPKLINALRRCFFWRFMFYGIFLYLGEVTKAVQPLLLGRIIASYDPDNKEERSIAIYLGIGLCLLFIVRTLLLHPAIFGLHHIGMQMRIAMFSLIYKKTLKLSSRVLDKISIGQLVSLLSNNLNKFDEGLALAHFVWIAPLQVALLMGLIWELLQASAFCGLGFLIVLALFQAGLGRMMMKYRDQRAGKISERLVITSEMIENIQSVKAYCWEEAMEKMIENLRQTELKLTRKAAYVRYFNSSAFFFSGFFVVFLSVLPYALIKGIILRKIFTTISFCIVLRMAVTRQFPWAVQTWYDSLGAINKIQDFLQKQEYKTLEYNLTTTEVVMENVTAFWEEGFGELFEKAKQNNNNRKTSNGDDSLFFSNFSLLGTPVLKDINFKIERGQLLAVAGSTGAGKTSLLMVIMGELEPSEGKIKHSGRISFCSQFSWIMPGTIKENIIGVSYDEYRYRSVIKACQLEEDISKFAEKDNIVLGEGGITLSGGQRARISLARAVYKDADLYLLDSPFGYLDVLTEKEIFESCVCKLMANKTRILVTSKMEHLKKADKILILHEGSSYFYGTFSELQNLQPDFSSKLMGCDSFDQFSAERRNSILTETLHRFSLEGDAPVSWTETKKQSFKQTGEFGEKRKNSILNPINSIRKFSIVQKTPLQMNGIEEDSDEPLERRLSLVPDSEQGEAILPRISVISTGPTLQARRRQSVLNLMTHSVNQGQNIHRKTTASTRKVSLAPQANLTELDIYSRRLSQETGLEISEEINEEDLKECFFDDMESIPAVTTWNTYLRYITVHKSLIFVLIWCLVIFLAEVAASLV
T1 sequence (P13569 919-1480 limits assumed, stated change not applied): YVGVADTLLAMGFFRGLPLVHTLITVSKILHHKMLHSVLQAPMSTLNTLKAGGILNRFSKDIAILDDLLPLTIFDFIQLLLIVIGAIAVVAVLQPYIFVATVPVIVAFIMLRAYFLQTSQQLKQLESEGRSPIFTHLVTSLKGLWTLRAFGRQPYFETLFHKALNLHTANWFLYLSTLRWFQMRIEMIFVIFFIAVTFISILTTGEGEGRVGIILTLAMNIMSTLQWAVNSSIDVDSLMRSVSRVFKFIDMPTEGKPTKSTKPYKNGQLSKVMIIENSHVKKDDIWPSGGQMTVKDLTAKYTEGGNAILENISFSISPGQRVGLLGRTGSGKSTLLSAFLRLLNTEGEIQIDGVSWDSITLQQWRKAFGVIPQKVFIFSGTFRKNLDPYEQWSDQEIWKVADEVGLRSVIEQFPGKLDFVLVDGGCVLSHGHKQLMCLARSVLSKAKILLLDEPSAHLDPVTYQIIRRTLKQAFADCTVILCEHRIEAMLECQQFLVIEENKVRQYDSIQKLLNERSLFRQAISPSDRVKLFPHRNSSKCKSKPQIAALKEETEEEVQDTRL

For `CCN(CCO)C(=O)[C@H]1CC[C@H]([C@H]2C[C@@H](NC(=O)[C@@]3(C)COc4cc5c(cc43)OC(F)(F)O5)c3ccc(OC(F)(F)F)cc3O2)CC1` [Example 253, (7R)—N-[(2R,4R)-2-{trans-4-[ethyl(2-hydroxyethyl)carbamoyl]cyclohexyl}-7-(trifluoromethoxy)-3,4-dihydro-2H-1-benzopyran-4-yl]-2,2-difluoro-7-methyl-6,7-dihydro-2H-furo[2,3-f][1,3]benzodioxole-7-carboxamide], it took 60 nM to reach a half-maximal effect (EC50) and the “Maximum % activity (%)” value came to 150%.
Consider `C[C@]1(C(=O)N[C@H]2C[C@@H](C3(C(=O)N(CCO)CCO)CC3)Oc3cc(OC(F)(F)F)ccc32)COc2cc3c(cc21)OC(F)(F)O3` [Example 280, (7R)—N-[(2S,4S)-2-{1-[bis(2-hydroxyethyl)carbamoyl]cyclopropyl}-7-(trifluoromethoxy)-3,4-dihydro-2H-1-benzopyran-4-yl]-2,2-difluoro-7-methyl-6,7-dihydro-2H-furo[2,3-f][1,3]benzodioxole-7-carboxamide], for which the EC50 was more than 20000 nM and the “Maximum % activity (%)” value is 10%.
For `C[C@@]1(C(=O)Nc2cc(C3CC3)nn(-c3ccc(C(=O)O)cc3)c2=O)COc2cc3c(cc21)OC(F)(F)O3` [Example 31, 4-[3-cyclopropyl-5-{[(7S)-2,2-difluoro-7-methyl-6,7-dihydro-2H-furo[2,3-f][1,3]benzodioxole-7-carbonyl]amino}-6-oxopyridazin-1(6H)-yl]benzoic acid] the same measures were more than 20000 nM and 7%.
With `CC(C)(COCc1ccccc1)c1cc2cc(NC(=O)[C@]3(C)COc4cc5c(cc43)OC(F)(F)O5)c(F)cc2n1C[C@@H](O)COCc1ccccc1` [Example 205, (7S)—N-{1-[(2R)-3-(benzyloxy)-2-hydroxypropyl]-2-[1-(benzyloxy)-2-methylpropan-2-yl]-6-fluoro-1H-indol-5-yl}-2,2-difluoro-7-methyl-6,7-dihydro-2H-furo[2,3-f][1,3]benzodioxole-7-carboxamide], the EC50 is more than 20000 nM and the “Maximum % activity (%)” value is 18%.
For `COC(=O)[C@@H]1CCN(c2cccc(NC(=O)C3(C)COc4cc5c(cc43)OC(F)(F)O5)n2)C1` (stereo partly drawn) [Example 7, methyl (3R)-1-{6-[(2,2-difluoro-7-methyl-6,7-dihydro-2H-furo[2,3-f][1,3]benzodioxole-7-carbonyl)amino]pyridin-2-yl}pyrrolidine-3-carboxylate] the same measures were 3770 nM and 124%.
In the case of `CC(C)(C)c1cc2cc(NC(=O)[C@@]3(C)COc4cc5c(cc43)OC(F)(F)O5)c(F)cc2n1C[C@@H](O)COCc1ccccc1` [Example 132, (7R)—N-{1-[(2R)-3-(benzyloxy)-2-hydroxypropyl]-2-tert-butyl-6-fluoro-1H-indol-5-yl}-2,2-difluoro-7-methyl-6,7-dihydro-2H-furo[2,3-f][1,3]benzodioxole-7-carboxamide], the concentration for a half-maximal effect (EC50) came out at 330 nM and the “Maximum % activity (%)” value was found to be 138%.
Turning to `COc1ccc2c(c1)O[C@@H](c1cccc(C(=O)O)c1)C[C@H]2NC(=O)[C@@]1(C)COc2cc3c(cc21)OC(F)(F)O3` [Example 14, 3-[(2R,4R)-4-{[(7R)-2,2-difluoro-7-methyl-6,7-dihydro-2H-furo[2,3-f][1,3]benzodioxole-7-carbonyl]amino}-7-methoxy-3,4-dihydro-2H-1-benzopyran-2-yl]benzoic acid], the EC50 amounted to 380 nM and the “Maximum % activity (%)” value worked out at 187%.
For `Cc1ccc(NC(=O)[C@@]2(C)COc3cc4c(cc32)OC(F)(F)O4)nc1-c1cc(C(=O)O)cs1` [Example 127, 5-(6-{[(7R)-2,2-difluoro-7-methyl-6,7-dihydro-2H-furo[2,3-f][1,3]benzodioxole-7-carbonyl]amino}-3-methylpyridin-2-yl)thiophene-3-carboxylic acid] the same measures were 460 nM and 140%.
As for `CC1(C)OC[C@H]([C@@H](O)Cn2nc(-c3ccccc3)cc(NC(=O)[C@@]3(C)COc4cc5c(cc43)OC(F)(F)O5)c2=O)O1` [Example 104, (7R)—N-(2-{(2S)-2-[(4R)-2,2-dimethyl-1,3-dioxolan-4-yl]-2-hydroxyethyl}-3-oxo-6-phenyl-2,3-dihydropyridazin-4-yl)-2,2-difluoro-7-methyl-6,7-dihydro-2H-furo[2,3-f][1,3]benzodioxole-7-carboxamide], the EC50 is more than 20000 nM and the “Maximum % activity (%)” value was determined as 16%.
Turning to `COc1ccc2c(c1)O[C@@H](c1ccc(C(=O)O)cc1)C[C@H]2NC(=O)[C@]1(C)CCc2cc3c(cc21)OC(F)(F)O3` (single isomer, unassigned) [Example 49], it took 210 nM to reach a half-maximal effect (EC50) and the “Maximum % activity (%)” value is on record as 116%.
`COc1ccc2c(c1)O[C@@H](c1ccc(C(=O)NC(CO)c3ccccc3)cn1)C[C@H]2NC(=O)[C@@]1(C)COc2cc3c(cc21)OC(F)(F)O3` (stereo partly drawn) [Example 216, 6-[(2R,4R)-4-{[(7R)-2,2-difluoro-7-methyl-6,7-dihydro-2H-furo[2,3-f][1,3]benzodioxole-7-carbonyl]amino}-7-methoxy-3,4-dihydro-2H-1-benzopyran-2-yl]-N-(2-hydroxy-1-phenylethyl)pyridine-3-carboxamide]: a half-maximal response (EC50) required 30 nM and the “Maximum % activity (%)” value amounted to 130%.
As for `COc1ccc2c(c1)O[C@@H](c1ccc(C(=O)N(CCO)Cc3ccccc3)cn1)C[C@H]2NC(=O)[C@@]1(C)COc2cc3c(cc21)OC(F)(F)O3` [Example 210, N-benzyl-6-[(2R,4R)-4-{[(7R)-2,2-difluoro-7-methyl-6,7-dihydro-2H-furo[2,3-f][1,3]benzodioxole-7-carbonyl]amino}-7-methoxy-3,4-dihydro-2H-1-benzopyran-2-yl]-N-(2-hydroxyethyl)pyridine-3-carboxamide], the EC50 was determined as 30 nM and the “Maximum % activity (%)” value was 147%.
For `CC(C)(C)OC(=O)N[C@H]1CC[C@H]([C@H]2C[C@@H](NC(=O)[C@@]3(C)COc4cc5c(cc43)OC(F)(F)O5)c3ccc(OC(F)F)cc3O2)CC1` [Example 199, tert-butyl {trans-4-[(2R,4R)-7-(difluoromethoxy)-4-{[(7R)-2,2-difluoro-7-methyl-6,7-dihydro-2H-furo[2,3-f][1,3]benzodioxole-7-carbonyl]amino}-3,4-dihydro-2H-1-benzopyran-2-yl]cyclohexyl}carbamate], the EC50 was determined as 210 nM and the “Maximum % activity (%)” value is 149%.
For `COc1ccc2c(c1)O[C@@H](c1ccc(C(=O)N3CCN(S(N)(=O)=O)CC3)cn1)C[C@H]2NC(=O)[C@@]1(C)COc2cc3c(cc21)OC(F)(F)O3` [Example 233, (7R)-2,2-difluoro-N-{(2R,4R)-7-methoxy-2-[5-(4-sulfamoylpiperazine-1-carbonyl)pyridin-2-yl]-3,4-dihydro-2H-1-benzopyran-4-yl}-7-methyl-6,7-dihydro-2H-furo[2,3-f][1,3]benzodioxole-7-carboxamide] the same measures were 50 nM and 112%.
For `CC1(C(=O)Nc2cccc(N3CCC(C(=O)O)CC3)n2)COc2cc3c(cc21)OC(F)(F)O3` (stereo not drawn) [Example 71, 1-{6-[(2,2-difluoro-7-methyl-6,7-dihydro-2H-furo[2,3-f][1,3]benzodioxole-7-carbonyl)amino]pyridin-2-yl}piperidine-4-carboxylic acid] the same measures were 1230 nM and 128%.
